Results: ChEMBL document CHEMBL3044899, “Effect of chloro and fluoro groups on the antimicrobial activity of 2,5-disubstituted 4-thiazolidinones: a comparative study” (2012)
Active and inactive are the calls of the source. The calls are words filed in the database; no cut-off is given here.

Assays:
[1] = test system: Escherichia coli; experiment: Antibacterial activity against Escherichia coli MTCC 739 by cup-plate method; assay type: functional, organism-based
[2] = test system: Pseudomonas aeruginosa; experiment: Antibacterial activity against Pseudomonas aeruginosa MTCC 2453 at 200 ug/ml by cup-plate method; assay type: functional; settings: read-out: DIZ
[3] = test system: Pseudomonas aeruginosa; experiment: Antibacterial activity against Pseudomonas aeruginosa MTCC 2453 by cup-plate method; assay type: functional, organism-based
[4] = test system: Staphylococcus aureus; experiment: Antibacterial activity against Staphylococcus aureus MTCC 96 at 300 ug/ml by cup-plate method; assay type: functional; settings: read-out: DIZ
[5] = test system: Bacillus subtilis; experiment: Antibacterial activity against Bacillus subtilis MTCC 121 at 300 ug/ml by cup plate method; assay type: functional; settings: read-out: DIZ
[6] = test system: Pseudomonas aeruginosa; experiment: Antibacterial activity against Pseudomonas aeruginosa MTCC 2453 at 300 ug/ml by cup-plate method; assay type: functional; settings: read-out: DIZ
[7] = test system: Escherichia coli; experiment: Antibacterial activity against Escherichia coli MTCC 739 at 100 ug/ml by cup-plate method; assay type: functional; settings: read-out: DIZ
[8] = test system: Pseudomonas aeruginosa; experiment: Antibacterial activity against Pseudomonas aeruginosa MTCC 2453 at 50 ug/ml by cup-plate method; assay type: functional; settings: read-out: DIZ
[9] = test system: Escherichia coli; experiment: Antibacterial activity against Escherichia coli MTCC 739 at 50 ug/ml by cup-plate method; assay type: functional; settings: read-out: DIZ
[10] = test system: Bacillus subtilis; experiment: Antibacterial activity against Bacillus subtilis MTCC 121 by cup plate method; assay type: functional, organism-based
[11] = test system: Bacillus subtilis; experiment: Antibacterial activity against Bacillus subtilis MTCC 121 at 200 ug/ml by cup plate method; assay type: functional; settings: read-out: DIZ
[12] = test system: Staphylococcus aureus; experiment: Antibacterial activity against Staphylococcus aureus MTCC 96 at 50 ug/ml by cup-plate method; assay type: functional; settings: read-out: DIZ
[13] = test system: Bacillus subtilis; experiment: Antibacterial activity against Bacillus subtilis MTCC 121 at 50 ug/ml by cup plate method; assay type: functional; settings: read-out: DIZ
[14] = test system: Candida albicans; experiment: Antifungal activity against Candida albicans MTCC 227 at 50 to 300 ug/ml by cup-plate method; assay type: functional, organism-based
[15] = test system: Bacillus subtilis; experiment: Antibacterial activity against Bacillus subtilis MTCC 121 at 100 ug/ml by cup plate method; assay type: functional; settings: read-out: DIZ
[16] = test system: Escherichia coli; experiment: Antibacterial activity against Escherichia coli MTCC 739 at 300 ug/ml by cup-plate method; assay type: functional; settings: read-out: DIZ
[17] = test system: Escherichia coli; experiment: Antibacterial activity against Escherichia coli MTCC 739 at 200 ug/ml by cup-plate method; assay type: functional; settings: read-out: DIZ
[18] = test system: Staphylococcus aureus; experiment: Antibacterial activity against Staphylococcus aureus MTCC 96 by cup-plate method; assay type: functional, organism-based
[19] = test system: Staphylococcus aureus; experiment: Antibacterial activity against Staphylococcus aureus MTCC 96 at 100 ug/ml by cup-plate method; assay type: functional; settings: read-out: DIZ
[20] = test system: Staphylococcus aureus; experiment: Antibacterial activity against Staphylococcus aureus MTCC 96 at 200 ug/ml by cup-plate method; assay type: functional; settings: read-out: DIZ
[21] = test system: Pseudomonas aeruginosa; experiment: Antibacterial activity against Pseudomonas aeruginosa MTCC 2453 at 100 ug/ml by cup-plate method; assay type: functional; settings: read-out: DIZ

| Compound | Activity [1] | zone of inhibition at 200 µg/mL [2] [mm] | Activity [3] | zone of inhibition at 300 µg/mL [4] [mm] | zone of inhibition at 300 µg/mL [5] [mm] | zone of inhibition at 300 µg/mL [6] [mm] | zone of inhibition at 100 µg/mL [7] [mm] | zone of inhibition at 50 µg/mL [8] [mm] | zone of inhibition at 50 µg/mL [9] [mm] | Activity [10] | zone of inhibition at 200 µg/mL [11] [mm] | zone of inhibition at 50 µg/mL [12] [mm] | zone of inhibition at 50 µg/mL [13] [mm] | Activity [14] | zone of inhibition at 100 µg/mL [15] [mm] | zone of inhibition at 300 µg/mL [16] [mm] | zone of inhibition at 200 µg/mL [17] [mm] | Activity [18] | zone of inhibition at 100 µg/mL [19] [mm] | zone of inhibition at 200 µg/mL [20] [mm] | further results |
| --- | --- | --- | --- | --- | --- | --- | --- | --- | --- | --- | --- | --- | --- | --- | --- | --- | --- | --- | --- | --- | --- |
| O=C1N/C(=N\c2ccc(Cl)cc2)S/C1=C\c1ccccc1[N+](=O)[O-] | Dose-dependent effect | 8 | Dose-dependent effect | 10 | 11 | 9 | 8 | 7 | 6 | Dose-dependent effect | 10 | 8 | 8 | inactive | 9 | 9 | 9 | Dose-dependent effect | 9 | 10 | zone of inhibition at 100 µg/mL [21]: 8 mm |
| O=C1N/C(=N\c2ccc(F)c(Cl)c2)S/C1=C\c1ccccc1 | Dose-dependent effect | 10 | Dose-dependent effect | 10 | 12 | 12 | 8 | 8 | 7 | Dose-dependent effect | 10 | 6 | 6 | inactive | 6 | 12 | 11 | Dose-dependent effect | 10 | 10 | zone of inhibition at 100 µg/mL [21]: 10 mm |
| O=C1N/C(=N\c2cccc(Cl)c2)S/C1=C\c1ccccc1 | Dose-dependent effect | 8 | Dose-dependent effect | 9 | 7 | 9 | 7 | 6 | 7 | Dose-dependent effect | 7 | 6 | 6 | inactive | 7 | 8 | 7 | Dose-dependent effect | 7 | 8 | zone of inhibition at 100 µg/mL [21]: 7 mm |
| COc1cc(/C=C2\S/C(=N/c3ccc(Cl)cc3)NC2=O)ccc1O | Dose-dependent effect | 8 | Dose-dependent effect | 8 | 7 | 9 | 8 | 7 | 7 | Dose-dependent effect | 7 | 6 | 6 | inactive | 7 | 9 | 9 | Dose-dependent effect | 6 | 7 | zone of inhibition at 100 µg/mL [21]: 7 mm |
